{"source": "patent US20160280651A1", "about": "“COMPOUNDS THAT INDUCE ABA RESPONSES” (THE REGENTS OF THE UNIVERSITY OF CALIFORNIA, priority 2013, published 2016)", "key": {"[1]": {"tested_on": "aba2 mutant plants", "experiment": "Rescue of growth defects of ABA-deficient mutant aba2", "assay_type": "in vivo, Arabidopsis", "details": "25 μM sprayed two times a day for two weeks; versus DMSO", "procedure": "FIG. 16A-FIG. 16B. Application of LC66C6 can rescue growth defects observed in the ABA-deficient mutant aba2. Chemical solution (25 μM) was sprayed on 14-day-plants two times per day for 2 weeks. The image (A) and fresh weight (B) were obtained from 4-week plants.\nIn this example, 14-day old wild-type and aba2 mutant plants were sprayed with a solution containing 25 μM of agonist two times a day for two weeks. Images and fresh weight were obtained from 4 week old plants."}, "[2]": {"tested_on": "Arabidopsis plants", "experiment": "Arabidopsis drought stress assay", "assay_type": "in vivo", "details": "25 μM, aerosol every 3 days", "procedure": "FIG. 8A-FIG. 8B. Quinabactin confers drought stress tolerance to wild-type plants. (A) Effect of quinabactin on Arabidopsis drought tolerance. Two-week-old plants were subjected to drought stress by withholding water and were photographed after 12 days. During the drought period, plants were treated every 3 days with 25 μM compound. Plants were re-hydrated after 2 weeks drought treatment; the number of surviving plants (out of total number tested) for each treatment is shown next to each image. (B) Effects of quinabactin on soybean. Two-week-old plants were subjected to drought stress by withholding water and photographed after 8 days drought treatment. […]\nPhysiological assays were performed on Arabidopsis plants grown at 22±2° C. and relative humidity (RH) 45±10% under a 16/8-h light/dark cycle. […] 12 4-week old plants were sprayed per compound or control analyzed. After overnight pre-treatment with compounds, the aerial portions were detached from roots, and their fresh weight measured at 20 min intervals over a 2 hour time period. […] The leaf impressions were analyzed by light microscopy and stomatal apertures were determined from the pore widths using ImageJ 1.43v software (National Institutes of Health, USA). […] Pots were covered in Parafilm to so that the water loss measured was transpiration mediated. […]"}, "[3]": {"tested_on": "ZmRab17 and ZmLEA", "experiment": "Quantitative RT-PCR of ABA-responsive genes in maize", "assay_type": "in vivo", "text": "(§1) FIG. 13A-FIG. 13E. LC66C6 modulates ABA responses in diverse species. Germination inhibition (A) and transpirational water loss in detached leaves 2-hours after detachment (B) in response to compounds shown. The expression of ABA-responsive marker genes in Soybean (C), Barley (D) and Maize (E) after application of chemicals. D, P, L and A indicate DMSO, pyrabactin, LC66C6 and (+)-ABA, respectively.\nTotal RNA was isolated using Plant RNA purification reagent (Invitrogen, USA) according to the manufacturer's instructions. cDNA was synthesized from 1 μg of total RNA using the QantiTec reverse transcription kit (Qiagen, USA). Real-time PCR using Maxima® SYBR Green/Fluorescein qPCR Master Mix (Fermentas) was performed with the iQ5 real-time PCR detection system (Bio-Rad, Hercules, Calif.). The relative amounts of target mRNAs were determined using the relative standard curve method and were normalized by relative amount of internal control mRNA. Biological triplicate experiments were performed."}, "[4]": {"tested_on": "detached leaves of crop species", "experiment": "Water loss analyses in diverse species", "assay_type": "in vivo, soybean, barley, maize and other species", "details": "over a period of 2 hours", "procedure": "as §1\nFor water loss analyses using soybean barley and maize, 100 μM chemical solution containing 0.05% Tween-20 was sprayed on to the aerial parts of the plants. The soybean, barley and maize plants used were approximately 4-, 2- and 2-weeks old respectively. Compounds were applied 16 hours before water loss assays were conduction. To measure water loss entire shoots were detached and their fresh weight monitored."}}}
{"smiles": "CCCN1C(=O)CCc2cc(NS(=O)(=O)Cc3ccc(C)cc3)ccc21", "note": "[LC66C6]", "values": [{"measurement": "Size of aba2 mutant plants", "setting": "[1]", "value": "significantly increased the size of the mutant plants"}, {"measurement": "Drought stress tolerance", "setting": "[2]", "value": "confers drought stress tolerance in Arabidopsis plants similar to that conferred by treatment with (+)-ABA"}, {"measurement": "Expression of ABA-responsive genes ZmRab17 and ZmLEA", "setting": "[3]", "value": "weakly induces"}, {"measurement": "Transpirational water loss in detached leaves of diverse species", "setting": "[4]", "value": "reduces transpirational water loss"}]}
